In experiment [1] the test system is HIV-1 NL4.3. Put plainly: MT-2 cell-based HIV co-culture assay (HeLa CD4 LTR/lacZ indicator cells, β-Gal reporter). As to conditions: for EC50: read-out: MT-2 Co-Culture Assay EC50; for EC90: read-out: MT-2 Co-Culture Assay EC90. The method, then: HeLa CD4 LTR/lacZ indicator cells were added to 96-well microtiter plates at cell densities of 1×10^4 cells/well in DMEM or RPMI medium (Life Technologies) containing 10% FBS (HyClone). MT-2 cells were infected with HIV-1 NL4.3 using 656, 1312, 2624, or 5248 TCID50s per 1.6×10^4 cells. Two hours after infection, infected MT-2 cells were washed with RPMI medium (Life Technologies) and added to the 96-well microtiter plates containing the HeLa CD4 LTR/lacZ indicator cells. The final MT2-cell densities in the indicator wells were 1.6×10^4 cells/well.
Virus replication was measured 4 days after infection by quantifying HIV-1 Tat induced beta-galactosidase (β-Gal) activity in the HeLa CD4 LTR/lacZ indicator cells using the Dual-Light™ System according to the manufacturer's protocol (Applied Biosystems). Experiments were performed in replicates of 3 or more.
Half-log dilutions of test compounds were added to HeLa CD4 LTR/lacZ indicator cells seeded in 96-well plates at a cell density of 1×10^4 cells per well in DMEM or RPMI (Life Technologies) containing 10% FBS (HyClone). MT-2 cells were infected with HIV-1 NL4.3 virus at an MOI of 0.08. Two hours after infection, infected cells were washed with RPMI, resuspended in RPMI medium, and added to the 96-well plates containing compound-treated or compound free HeLa CD4 LTR/lacZ indicator cells. Virus replication was measured 3 or 4 days after infection by quantifying HIV-1 Tat induced β-Gal activity in the HeLa CD4 LTR/lacZ indicator cells using the Dual-Light™ System according to the manufacturer's protocol (Applied Biosystems).
Data was expressed as the percent of reporter gene activity in infected compound-treated cells relative to that of infected, compound-free cells.

Experiment [2] deals with HIV-1 NL4.3. Put plainly: PM1 cell-based HIV co-culture assay (HeLa CD4 LTR/lacZ indicator cells, β-Gal reporter). As to conditions: for EC50: read-out: PM-1 Co-Culture Assay EC50; for EC90: read-out: PM-1 Co-Culture Assay EC90.
Source text: (§1) The modifications were as follows: PM1 cells were used in place of the MT-2 cells.
as §1

The subject of experiment [3] is HIV-1. Particulars: range of EC50 values reported in the literature, NIH anti-HIV therapeutics database, cited from earlier work.
For experiment [4], the system named is HIV-1 NL4.3. Put plainly: Direct infection of HeLa CD4 LTR/lacZ indicator cells (known reporter cell assay). The experiment is classed as cell-based. The text has this: This Example compared the present HIV co-culture assay with a known reporter cell-based assay method. This known method involved direct infection of HeLa CD4 LTR/lacZ indicator cells with HIV-1 (Kimpton and Emerman, J. Virol., 66(4):2232-2239 (1992)).
HeLa CD4 LTR/lacZ indicator cells were directly infected with TCID50s identical to those used in the co-culture experiments described in Examples 1 and 2. HeLa CD4 LTR/lacZ indicator cells were infected directly with HIV-1 NL4.3 using 656, 1312, 2624, or 5248 TCID50s per 1×10^4 cells.

Setting [5] is: Human immunodeficiency virus 1, MT2, 96 h.
The mark [6] stands for this setting: Human immunodeficiency virus 1, PM1, 96 h.
The mark [7] stands for this setting: Human immunodeficiency virus 1, MT2, 96 h, induced β-Gal activity 4 days after HIV-1 NL4.3 infection, MT-2 cells, MOI 0.08.
Where [8] appears, read: Human immunodeficiency virus 1, PM1, 96 h, induced β-Gal activity 4 days after HIV-1 NL4.3 infection, PM-1 cells.
[9] abbreviates: read-out: Literature EC50 (Table 1).
[10] abbreviates: read-out: Literature EC50 (Table 2).
[11] abbreviates: Human immunodeficiency virus 1, 96 h, read-out: inhibition of the reporter signal.
The mark [12] stands for this setting: induced β-Gal activity 4 days after HIV-1 NL4.3 infection, MT-2 cells, MOI 0.08.
The mark [13] stands for this setting: induced β-Gal activity 4 days after HIV-1 NL4.3 infection, PM-1 cells.

Where two headings read alike, the source gives them in different places.

Turning to `Nc1ccn([C@@H]2CS[C@H](CO)O2)c(=O)n1` [3TC, lamivudine], in experiment [1] (setting [5]), the EC50 (commonly the concentration at which the effect is half-maximal) stood at 420 nM and the EC90 – broadly, the point of the concentration-response curve where the effect stands at 90% – is 5500 nM. Also, in experiment [2] (setting [6]), the EC50 was determined as 180 nM and the EC90 is 1700 nM.

Turning to `CC(C)(C)C(=O)OCOP(=O)(COCCn1cnc2c(N)ncnc21)OCOC(=O)C(C)(C)C` [ADV, adefovir dipivoxil], the EC50 in experiment [1] (setting [7]) was 39 nM; in experiment [2] (setting [8]), 25 nM; in experiment [3] (setting [9]), 40 to 500 nM; in experiment [3] (setting [10]), 40 to 500 nM. The EC90 in experiment [1] (setting [7]) is 220 nM; in experiment [2] (setting [8]), 150 nM.

In the case of `O=C(O)C1=CC(=C(c2ccc(O)c(C(=O)O)c2)c2ccc(O)c(C(=O)O)c2)C=CC1=O` [ATA, aurintricarboxylic acid], in experiment [1] (setting [5]), the EC50 turned out to be 3300 nM and the EC90 worked out at 9900 nM.

In the case of `Cc1cn([C@H]2C[C@H](N=[N+]=[N-])[C@@H](CO)O2)c(=O)[nH]c1=O` [AZT, 3′-Azido-3′-deoxythymidine], the EC50 in experiment [1] (setting [5]) is 31 nM; in experiment [2] (setting [6]), 30 nM; in experiment [3] (setting [9]) it was 6 to 90 nM; in experiment [3] (setting [10]) it was 6 to 90 nM. Further, the concentration for an effect of 90% (EC90) in experiment [1] (setting [5]) turned out to be 280 nM; in experiment [2] (setting [6]), 180 nM.

For the compound `CC(C)c1nc(COC(N)=O)n(Cc2ccncc2)c1Sc1cc(Cl)cc(Cl)c1` [CPV, Capravirine], in experiment [1] (setting [5]), the EC50 worked out at 2.4 nM and the concentration for an effect of 90% (EC90) worked out at 12 nM.

Take `CC(C)Nc1cccnc1N1CCN(C(=O)c2cc3cc(NS(C)(=O)=O)ccc3[nH]2)CC1` [DLV, delavirdine]: the EC50 is 34 nM in experiment [1] (setting [5]), 5.9 nM in experiment [2] (setting [6]), 0.1 to 10 nM in experiment [3] (setting [9]) and 0.1 to 10 nM in experiment [3] (setting [10]). For the same compound, the EC90 in experiment [1] (setting [5]) stood at 110 nM; in experiment [2] (setting [6]), 100 nM.

Regarding `O=C1Nc2ccc(Cl)cc2[C@@](C#CC2CC2)(C(F)(F)F)O1` [EFV, efavirenz], in experiment [1] (setting [11]), the inhibition (commonly the share of the control response that was lost under treatment) at 0.1 µM was greater than 99%. In experiment [1] (setting [5]), the concentration giving a half-maximal response (EC50) is 1.4 nM and the EC90 is 4.3 nM. Also, in experiment [2] (setting [6]), the EC50 amounted to 0.19 nM and the concentration for an effect of 90% (EC90) was 6.2 nM. In addition, the “inhibition of the reporter signal” value in experiment [4] (inhibitor at >10×EC90) is greater than 99%.

As to `CC(C)(C)NC(=O)[C@@H]1CN(Cc2cccnc2)CCN1C[C@@H](O)C[C@@H](Cc1ccccc1)C(=O)N[C@H]1c2ccccc2C[C@H]1O` [IDV, indinavir], the EC50 in experiment [1] (setting [5]) is 26 nM; in experiment [2] (setting [6]), 12 nM; in experiment [3] (setting [9]), 1.1 to 60 nM; in experiment [3] (setting [10]), 1.1 to 60 nM. The EC90 in experiment [1] (setting [5]) came to 55 nM; in experiment [2] (setting [6]) it was 47 nM.

Turning to `O=C(NCc1ccc(F)cc1)c1nc(N2CCCCS2(=O)=O)c2cccnc2c1O` [L-870810], the EC50 is 1.4 nM in experiment [1] (setting [12]), 0.61 nM in experiment [2] (setting [13]), 4 to 8 nM in experiment [3] (setting [9]) and 4 to 8 nM in experiment [3] (setting [10]). The results for the EC90 in experiment [1] (setting [12]) and in experiment [2] (setting [13]) were 5.9 nM and 2.4 nM, respectively.

Turning to `Cc1c(O)cccc1C(=O)N[C@@H](CSc1ccccc1)[C@H](O)CN1C[C@H]2CCCC[C@H]2C[C@H]1C(=O)NC(C)(C)C` [NFV, nelfinavir], the inhibition at 1 µM in experiment [1] (setting [11]) is roughly 98%. In addition, the EC50 in experiment [1] (setting [5]) is 18 nM; in experiment [2] (setting [6]), 10 nM; in experiment [3] (setting [9]), 10 to 43 nM; in experiment [3] (setting [10]), 10 to 43 nM. Further, the concentration for an effect of 90% (EC90) is 100 nM in experiment [1] (setting [5]) and 58 nM in experiment [2] (setting [6]). Further, the “inhibition of the reporter signal” value in experiment [2] (PM1 co-culture, inhibitor at ≧10×EC90) stood at 99%; in experiment [4] (inhibitor at 10×EC90), 42%.

Regarding `Cc1ccnc2c1NC(=O)c1cccnc1N2C1CC1` [NVP, Nevirapine], the EC50 was 46 nM in experiment [1] (setting [7]), 12 nM in experiment [2] (setting [8]), 24 to 48 nM in experiment [3] (setting [9]) and 24 to 48 nM in experiment [3] (setting [10]). Moreover, the EC90 amounted to 380 nM in experiment [1] (setting [7]) and 260 nM in experiment [2] (setting [6]).

As to `O=C(/C=C(\O)c1nc[nH]n1)c1ccc(Cc2ccc(F)cc2)o1` [S-1360], the half-maximal effective concentration (EC50) in experiment [1] (setting [7]) was determined as 88 nM; in experiment [2] (setting [8]), 91 nM. Further, the EC90 in experiment [1] (setting [7]) came out at 1090 nM; in experiment [2] (setting [8]), 280 nM.

`CC(C)(C)NC(=O)[C@@H]1C[C@@H]2CCCC[C@@H]2CN1C[C@@H](O)[C@H](Cc1ccccc1)NC(=O)[C@H](CC(N)=O)NC(=O)c1ccc2ccccc2n1` [SQV, saquinavir]: the EC50 is 12 nM in experiment [1] (setting [5]), 5.3 nM in experiment [2] (setting [6]), 0.2 to 57 nM in experiment [3] (setting [9]) and 0.2 to 57 nM in experiment [3] (setting [10]). The figures for the EC90 in experiment [1] (setting [5]) and in experiment [2] (setting [6]) were 26 nM and 34 nM, respectively.

With `Cc1cn([C@H]2C=C[C@@H](CO)O2)c(=O)[nH]c1=O` [d4T, stavudine], in experiment [1] (setting [5]), the EC50 stood at 210 nM and the EC90 is 3600 nM. Also, the EC50 in experiment [3] (setting [9]) is 10 to 8000 nM.

As for `O=c1[nH]cnc2c1ncn2[C@H]1CC[C@@H](CO)O1` [ddl, didanosine], the EC50 in experiment [1] (setting [5]) was 1700 nM; in experiment [3] (setting [9]), 460 to 10000 nM. For the same compound, the EC90 in experiment [1] (setting [5]) came out at 14000 nM.

The values above are taken from US20050014137A1, “Lentivirus assay system including Vif protein activity” (priority 2003, published 2005).
